The target in assay [1] is human (hACC2) (Homo sapiens, UniProt O00763). The assay can be described thus: In vitro ACC inhibition assay (ADP-Glo), hACC2. The class given is biochemical. Particulars: Table 2b, additional results, 5 nM ACC2, 20 μM ATP, 20 μM acetyl-CoA. How it is done: The detailed procedure is as follows. […] 10 μL ADP glo reagent was added. […] 20 μL kinase detection reagent was added.

Assay [2] has as its system C. albicans. The assay can be described thus: Antifungal Activity Assay (broth microtiter MIC), C. albicans. Type of assay: cell-based, Candida albicans. Particulars: Candida albicans, ATCC90028, 48 h. In short, it runs like this:
(§1)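 Broth microdilution per CLSI M27-A3 in RPMI 1640+MOPS, inoculum 2.5×10^3 CFU/mL final from overnight Sabouraud dextrose agar cultures at 35° C. Compounds diluted from DMSO stock to 128 μg/mL in water. MIC read visually versus growth control at 48 h.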

The test system of assay [3] is C. krusei. The assay can be described thus: Antifungal Activity Assay (broth microtiter MIC), C. krusei. Type of assay: cell-based, Candida krusei. Particulars: Pichia kudriavzevii, ATCC6258, 48 h. An outline of the steps:
as §1

Assay [4] has as its system C. parapsilosis. Briefly: Antifungal Activity Assay (broth microtiter MIC), C. parapsilosis. Type of assay: cell-based, Candida parapsilosis. Particulars: Lodderomyces parapsilosis, ATCC22019, 48 h. An outline of the steps:
as §1

Assay [5] deals with Botrtyis cinerea (Bc). The assay can be described thus: Growth inhibition assay of fungal pathogens, Bc. Type of assay: cell-based. Particulars: 48 h, growth inhibition at 48 hours vs 2% DMSO control. An outline of the steps:
(§2)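 Pathogen growth in 17% V8 broth is measured by OD600 at 24 and 48 hours, after blank subtraction, in the presence of compound at 50, 10 and 2 ppm or 2, 0.4 and 0.08 ppm. Inhibition in percent comes from 48-hour readings against the DMSO control.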

The test system of assay [6] is Collectotrichum graminicola (Cg). Briefly: Growth inhibition assay of fungal pathogens, Cg. Type of assay: cell-based. Particulars: 48 h, growth inhibition at 48 hours vs 2% DMSO control. An outline of the steps: as §2
Assay [7] has as its system Diplodia maydis (Dm). Briefly: Growth inhibition assay of fungal pathogens, Dm. Type of assay: cell-based. Particulars: Stenocarpella maydis, 48 h, growth inhibition at 48 hours vs 2% DMSO control. In short, it runs like this: as §2
Assay [8] relates to Fusarium moniliforme (Fm). The assay can be described thus: Growth inhibition assay of fungal pathogens, Fm. Type of assay: cell-based. Particulars: Fusarium verticillioides, 48 h, read-out: Concentration at 90% Inhibition Fm. An outline of the steps:
as §2

The test system of assay [9] is Fusarium virguliforme (Fv). Briefly: Growth inhibition assay of fungal pathogens, Fv. The class given is cell-based. Particulars: 48 h. In short, it runs like this:
as §2

Assay [10] concerns Phytophthora capsici (Pc). Briefly: Growth inhibition assay of fungal pathogens, Pc. Type of assay: cell-based. Particulars: 48 h. In short, it runs like this: as §2
Assay [11] deals with Rhizoctonia solani (Rs). Briefly: Growth inhibition assay of fungal pathogens, Rs. The class given is cell-based. Particulars: 48 h.
The test system of assay [12] is Septoria tritici (St). The assay can be described thus: Growth inhibition assay of fungal pathogens, St. Particulars: Zymoseptoria tritici, 48 h, growth inhibition at 48 hours vs 2% DMSO control. Type of assay: cell-based. An outline of the steps: as §2
Assay [13] has as its target fungal (fACC2) (UniProt Q00955). Particulars: read-out: fACC2 (in vitro ACC2 Inhibition Assay, IC50); Table 2b, additional results; ADP-Glo, 5 nM ACC2, 20 μM ATP, 20 μM acetyl-CoA.
[14] abbreviates: Table 3b (additional results), ATCC 90028, 3 replicates, MIC recorded at 48 h, read-out: MIC, C. albicans ATCC 90028.
The mark [15] stands for this setting: Table 3b (additional results), ATCC 6258, 3 replicates, MIC recorded at 48 h, read-out: MIC, C. krusei ATCC 6258.
Where [16] appears, read: Table 3b (additional results), ATCC 22019, 3 replicates, MIC recorded at 48 h, read-out: MIC, C. parapsilosis ATCC 22019.
The mark [17] stands for this setting: Botrtyis cinerea, read-out: Concentration at 90% Inhibition Bc.
Where [18] appears, read: Collectotrichum graminicola, read-out: Concentration at 90% Inhibition Cg.
[19] abbreviates: Diplodia maydis, read-out: Concentration at 90% Inhibition Dm.
Where [20] appears, read: Fusarium moniliforme, growth inhibition at 48 hours vs 2% DMSO control.
The mark [21] stands for this setting: growth inhibition at 48 hours vs 2% DMSO control, read-out: Concentration at 90% Inhibition Fv.
[22] abbreviates: growth inhibition at 48 hours vs 2% DMSO control, read-out: Concentration at 90% Inhibition Pc.
Where [23] appears, read: mycelial plugs, growth inhibition at 48 hours vs 2% DMSO control, read-out: Concentration at 90% Inhibition Rs.
Where [24] appears, read: Septoria tritici, read-out: Concentration at 90% Inhibition St.

Converted amounts (≈) assume the structure as drawn. Read-outs that look alike come from different tables or passages of the source.

Chain of human (hACC2) (O00763 whole entry): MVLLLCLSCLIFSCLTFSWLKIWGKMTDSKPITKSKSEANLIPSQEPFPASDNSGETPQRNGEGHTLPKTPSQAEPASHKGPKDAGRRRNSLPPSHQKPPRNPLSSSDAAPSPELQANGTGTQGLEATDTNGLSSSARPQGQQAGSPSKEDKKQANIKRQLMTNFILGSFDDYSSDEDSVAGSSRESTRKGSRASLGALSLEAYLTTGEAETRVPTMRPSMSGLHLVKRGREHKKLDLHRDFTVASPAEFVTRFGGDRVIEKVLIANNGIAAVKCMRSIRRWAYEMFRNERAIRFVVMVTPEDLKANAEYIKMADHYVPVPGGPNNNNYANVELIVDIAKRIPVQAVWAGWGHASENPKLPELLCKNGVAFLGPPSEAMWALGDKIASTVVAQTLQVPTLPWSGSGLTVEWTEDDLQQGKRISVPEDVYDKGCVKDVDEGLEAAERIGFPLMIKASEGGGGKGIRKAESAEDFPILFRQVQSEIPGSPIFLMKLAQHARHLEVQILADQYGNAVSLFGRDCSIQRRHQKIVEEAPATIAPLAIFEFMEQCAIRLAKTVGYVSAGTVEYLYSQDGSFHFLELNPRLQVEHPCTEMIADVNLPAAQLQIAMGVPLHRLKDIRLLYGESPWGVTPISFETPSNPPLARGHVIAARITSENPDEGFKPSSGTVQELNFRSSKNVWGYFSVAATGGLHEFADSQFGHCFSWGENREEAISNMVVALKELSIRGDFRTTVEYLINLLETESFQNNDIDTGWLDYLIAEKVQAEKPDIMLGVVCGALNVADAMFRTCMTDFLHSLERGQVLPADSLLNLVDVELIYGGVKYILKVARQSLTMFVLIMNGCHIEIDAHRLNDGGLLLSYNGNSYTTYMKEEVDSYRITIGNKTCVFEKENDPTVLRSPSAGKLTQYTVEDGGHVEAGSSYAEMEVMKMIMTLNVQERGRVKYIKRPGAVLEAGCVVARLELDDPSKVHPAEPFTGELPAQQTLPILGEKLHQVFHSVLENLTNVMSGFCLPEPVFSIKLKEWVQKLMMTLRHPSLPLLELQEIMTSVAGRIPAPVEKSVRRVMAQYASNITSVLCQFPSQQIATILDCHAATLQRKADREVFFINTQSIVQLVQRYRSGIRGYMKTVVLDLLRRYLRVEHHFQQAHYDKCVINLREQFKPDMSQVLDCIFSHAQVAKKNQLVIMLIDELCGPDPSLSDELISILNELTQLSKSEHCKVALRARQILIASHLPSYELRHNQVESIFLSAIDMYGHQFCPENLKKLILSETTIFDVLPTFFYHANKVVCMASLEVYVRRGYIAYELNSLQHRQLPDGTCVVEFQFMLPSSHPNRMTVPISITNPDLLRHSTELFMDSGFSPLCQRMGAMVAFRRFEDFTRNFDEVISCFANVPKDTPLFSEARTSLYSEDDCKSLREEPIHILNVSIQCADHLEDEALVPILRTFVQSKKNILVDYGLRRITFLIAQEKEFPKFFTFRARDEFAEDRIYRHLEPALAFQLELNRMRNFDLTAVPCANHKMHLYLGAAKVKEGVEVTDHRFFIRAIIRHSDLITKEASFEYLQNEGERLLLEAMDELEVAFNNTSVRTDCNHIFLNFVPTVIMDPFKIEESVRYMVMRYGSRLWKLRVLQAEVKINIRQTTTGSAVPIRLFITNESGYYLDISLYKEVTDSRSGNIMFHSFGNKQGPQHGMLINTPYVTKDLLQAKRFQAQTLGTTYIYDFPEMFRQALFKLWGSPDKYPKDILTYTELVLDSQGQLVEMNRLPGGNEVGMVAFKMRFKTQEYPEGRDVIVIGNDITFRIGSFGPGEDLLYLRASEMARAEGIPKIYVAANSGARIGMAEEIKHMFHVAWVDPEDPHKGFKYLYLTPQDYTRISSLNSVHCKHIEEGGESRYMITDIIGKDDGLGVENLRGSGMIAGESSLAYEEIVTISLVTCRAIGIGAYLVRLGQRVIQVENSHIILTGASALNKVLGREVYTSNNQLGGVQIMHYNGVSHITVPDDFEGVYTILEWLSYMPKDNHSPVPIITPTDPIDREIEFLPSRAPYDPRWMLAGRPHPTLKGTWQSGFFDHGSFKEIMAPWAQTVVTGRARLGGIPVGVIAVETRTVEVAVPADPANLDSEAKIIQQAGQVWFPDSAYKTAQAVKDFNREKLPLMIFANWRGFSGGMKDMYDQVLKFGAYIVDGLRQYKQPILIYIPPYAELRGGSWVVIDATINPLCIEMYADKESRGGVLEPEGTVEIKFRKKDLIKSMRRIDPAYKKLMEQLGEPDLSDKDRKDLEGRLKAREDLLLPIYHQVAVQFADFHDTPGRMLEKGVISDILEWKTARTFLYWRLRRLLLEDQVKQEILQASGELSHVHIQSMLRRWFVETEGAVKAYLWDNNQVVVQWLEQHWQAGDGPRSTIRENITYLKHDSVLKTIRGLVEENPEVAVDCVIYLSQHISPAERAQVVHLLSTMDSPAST
Chain of fungal (fACC2) (Q00955 whole entry): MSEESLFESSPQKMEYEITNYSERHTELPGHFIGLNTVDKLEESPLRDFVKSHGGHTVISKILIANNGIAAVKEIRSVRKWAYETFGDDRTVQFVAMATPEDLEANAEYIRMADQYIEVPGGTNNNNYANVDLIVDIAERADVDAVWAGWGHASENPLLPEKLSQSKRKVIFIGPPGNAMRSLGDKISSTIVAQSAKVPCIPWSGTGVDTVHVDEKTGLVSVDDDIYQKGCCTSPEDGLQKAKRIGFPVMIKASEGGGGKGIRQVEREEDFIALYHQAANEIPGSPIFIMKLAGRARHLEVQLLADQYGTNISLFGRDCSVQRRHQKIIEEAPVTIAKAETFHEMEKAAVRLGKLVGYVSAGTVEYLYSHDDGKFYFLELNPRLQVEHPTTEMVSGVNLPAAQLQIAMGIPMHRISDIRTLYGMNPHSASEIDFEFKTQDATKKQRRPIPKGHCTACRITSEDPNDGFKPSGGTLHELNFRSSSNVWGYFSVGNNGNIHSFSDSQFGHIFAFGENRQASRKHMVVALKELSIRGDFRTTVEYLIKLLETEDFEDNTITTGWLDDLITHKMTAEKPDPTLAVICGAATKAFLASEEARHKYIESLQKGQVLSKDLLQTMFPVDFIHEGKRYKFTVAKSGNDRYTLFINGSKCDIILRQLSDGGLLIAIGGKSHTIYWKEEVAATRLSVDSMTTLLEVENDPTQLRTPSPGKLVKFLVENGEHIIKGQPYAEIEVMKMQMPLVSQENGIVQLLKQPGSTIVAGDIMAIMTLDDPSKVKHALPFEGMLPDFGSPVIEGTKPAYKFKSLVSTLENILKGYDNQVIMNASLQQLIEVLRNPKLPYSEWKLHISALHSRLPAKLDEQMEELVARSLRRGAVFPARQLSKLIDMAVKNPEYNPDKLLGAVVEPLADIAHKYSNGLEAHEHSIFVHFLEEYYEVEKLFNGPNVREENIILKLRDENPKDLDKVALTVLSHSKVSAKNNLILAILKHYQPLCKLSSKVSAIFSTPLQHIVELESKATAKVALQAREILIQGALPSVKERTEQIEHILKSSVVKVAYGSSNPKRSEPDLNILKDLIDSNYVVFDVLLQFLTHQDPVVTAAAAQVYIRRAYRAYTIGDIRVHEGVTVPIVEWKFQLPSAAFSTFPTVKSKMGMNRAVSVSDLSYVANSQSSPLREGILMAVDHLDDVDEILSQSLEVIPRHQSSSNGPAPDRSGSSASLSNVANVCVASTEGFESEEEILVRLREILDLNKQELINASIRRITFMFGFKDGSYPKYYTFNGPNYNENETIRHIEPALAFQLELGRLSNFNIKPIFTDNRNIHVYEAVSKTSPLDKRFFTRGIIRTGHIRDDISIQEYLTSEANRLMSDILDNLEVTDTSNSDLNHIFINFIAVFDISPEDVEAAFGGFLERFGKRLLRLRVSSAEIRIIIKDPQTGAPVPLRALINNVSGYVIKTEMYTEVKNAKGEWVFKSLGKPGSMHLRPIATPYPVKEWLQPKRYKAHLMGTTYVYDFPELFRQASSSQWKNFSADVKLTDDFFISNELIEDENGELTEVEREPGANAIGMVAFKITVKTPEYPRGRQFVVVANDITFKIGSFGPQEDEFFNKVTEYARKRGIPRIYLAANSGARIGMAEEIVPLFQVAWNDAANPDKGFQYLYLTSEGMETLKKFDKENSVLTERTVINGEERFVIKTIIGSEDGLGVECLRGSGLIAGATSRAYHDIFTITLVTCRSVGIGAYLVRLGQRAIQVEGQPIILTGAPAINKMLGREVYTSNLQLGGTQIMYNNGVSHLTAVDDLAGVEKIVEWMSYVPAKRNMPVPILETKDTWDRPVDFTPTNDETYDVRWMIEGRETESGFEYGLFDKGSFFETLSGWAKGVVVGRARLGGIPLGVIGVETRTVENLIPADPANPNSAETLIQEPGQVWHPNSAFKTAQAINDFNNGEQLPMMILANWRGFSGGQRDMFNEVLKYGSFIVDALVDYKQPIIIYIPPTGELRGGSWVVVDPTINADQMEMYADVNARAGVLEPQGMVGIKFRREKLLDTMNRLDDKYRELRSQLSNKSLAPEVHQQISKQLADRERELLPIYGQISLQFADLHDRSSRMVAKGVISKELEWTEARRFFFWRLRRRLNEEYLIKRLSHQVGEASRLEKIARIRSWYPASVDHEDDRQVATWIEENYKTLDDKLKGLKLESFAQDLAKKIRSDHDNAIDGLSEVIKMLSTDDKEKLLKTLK

For the compound `COc1ccc(F)cc1[C@H](Cn1c(=O)n(C(C)(C)C(=O)NC(C)C)c(=O)c2c(C)c(-n3nccn3)sc21)O[C@H]1C[C@@H](O)C1` [Compound I-239], the concentration for half-maximal inhibition (IC50) (in general, the concentration needed to halve the response being measured) in assay [1] is 10 to 40 nM; in [13], 1 to 5 nM. The minimal inhibitory concentration (MIC) in [2] (setting [14]), in assay [3] (setting [15]) and in assay [4] (setting [16]) was 0.25 to 1 µg/mL (≈ 0.407 to 1.63 µM) in each case. Moreover, the IC90 in [5] (setting [17]) is 2 µg/mL (≈ 3.25 µM); in [6] (setting [18]) it was 2 µg/mL (≈ 3.25 µM); in [7] (setting [19]), 2 µg/mL (≈ 3.25 µM); in assay [8] (setting [20]) it was 0.08 µg/mL (≈ 0.13 µM); in assay [9] (setting [21]), 0.4 µg/mL (≈ 0.651 µM); in [10] (setting [22]) it was above 50 µg/mL. The results for the IC90 in [11] (setting [23]) and in [12] (setting [24]) were 0.08 µg/mL (≈ 0.13 µM) and above 50 µg/mL, respectively.

As for `CCc1ccc(F)cc1[C@@H](Cn1c(=O)n(C(C)(C)C(=O)NC(C)C)c(=O)c2c(C)c(-n3nccn3)sc21)OC[C@H](C)C#N` [Compound I-245], the IC50 was 1 to 5 nM in assay [1] and 0.3 to 1 nM in [13]. For the same compound, the minimum inhibitory concentration (MIC) (usually the lowest concentration found to suppress growth) in assay [2] (setting [14]) is 2.01 to 4 µg/mL (≈ 3.3 to 6.56 µM); in assay [3] (setting [15]), above 4.01 µg/mL; in assay [4] (setting [16]) it was 2.01 to 4 µg/mL (≈ 3.3 to 6.56 µM). Moreover, the IC90 in [5] (setting [17]) was 0.08 µg/mL (≈ 0.131 µM); in assay [6] (setting [18]), 0.08 µg/mL (≈ 0.131 µM); in assay [7] (setting [19]), 2 µg/mL (≈ 3.28 µM); in [8] (setting [20]) it was 0.08 µg/mL (≈ 0.131 µM); in assay [9] (setting [21]), 0.08 µg/mL (≈ 0.131 µM); in assay [10] (setting [22]), above 50 µg/mL. The IC90 is 0.08 µg/mL (≈ 0.131 µM) in assay [11] (setting [23]) and above 50 µg/mL in assay [12] (setting [24]).

Take `Cc1c(-n2nccn2)sc2c1c(=O)n(C(C)(C)C(=O)NC(C)C)c(=O)n2C[C@H](OCCC#N)c1cc(F)ccc1O` [Compound I-246]: the IC50 in assay [1] lay within 1 to 5 nM; in [13], 0.3 to 1 nM. Also, the MIC in assay [2] (setting [14]) was above 4.01 µg/mL; in [3] (setting [15]) it was 2.01 to 4 µg/mL (≈ 3.44 to 6.85 µM); in [4] (setting [16]), 2.01 to 4 µg/mL (≈ 3.44 to 6.85 µM). In addition, the IC90 worked out at 2 µg/mL (≈ 3.43 µM) in assay [5] (setting [17]); 2 µg/mL (≈ 3.43 µM) in [6] (setting [18]); 10 µg/mL (≈ 17.1 µM) in [7] (setting [19]); 0.4 µg/mL (≈ 0.685 µM) in assay [8] (setting [20]); 2 µg/mL (≈ 3.43 µM) in assay [9] (setting [21]); 10 µg/mL (≈ 17.1 µM) in assay [10] (setting [22]). Further, the IC90 was 0.4 µg/mL (≈ 0.685 µM) in assay [11] (setting [23]) and above 50 µg/mL in assay [12] (setting [24]).

As for `CCc1ccc(F)cc1[C@@H](Cn1c(=O)n(C(C)(C)C(=O)NC(C)C)c(=O)c2c(C)c(-n3nccn3)sc21)OC[C@@H](C)C#N` [Compound I-247], the IC50 in assay [1] and in assay [13] was 1 to 5 nM in each case. In addition, the MIC in [2] (setting [14]) was 2.01 to 4 µg/mL (≈ 3.3 to 6.56 µM); in assay [3] (setting [15]) it was above 4.01 µg/mL; in assay [4] (setting [16]), 2.01 to 4 µg/mL (≈ 3.3 to 6.56 µM). In addition, the IC90 is 0.4 µg/mL (≈ 0.656 µM) in [5] (setting [17]); 0.08 µg/mL (≈ 0.131 µM) in assay [6] (setting [18]); 2 µg/mL (≈ 3.28 µM) in [7] (setting [19]); 0.08 µg/mL (≈ 0.131 µM) in assay [8] (setting [20]); 0.4 µg/mL (≈ 0.656 µM) in assay [9] (setting [21]); above 50 µg/mL in [10] (setting [22]). For the same compound, the IC90 is 0.08 µg/mL (≈ 0.131 µM) in [11] (setting [23]) and above 50 µg/mL in assay [12] (setting [24]).

Take `COc1ccc(F)cc1[C@H](Cn1c(=O)n(C(C)(C)C(=O)NC(C)C)c(=O)c2c(C)c(-n3nccn3)sc21)OCCS(C)(=O)=O` [Compound I-248]: the IC50 was 10 to 40 nM in assay [1] and 0.3 to 1 nM in assay [13]. Further, the MIC in assay [2] (read-out: MIC, C. albicans ATCC 90028, Table 3b (additional results), 3 replicates, MIC recorded at 48 h) lay within 1.01 to 2 µg/mL (≈ 1.55 to 3.07 µM); in [3] (read-out: MIC, C. krusei ATCC 6258, Table 3b (additional results), 3 replicates, MIC recorded at 48 h), 1.01 to 2 µg/mL (≈ 1.55 to 3.07 µM); in assay [4] (read-out: MIC, C. parapsilosis ATCC 22019, Table 3b (additional results), 3 replicates, MIC recorded at 48 h), 1.01 to 2 µg/mL (≈ 1.55 to 3.07 µM). In addition, the IC90 in [5] (read-out: Concentration at 90% Inhibition Bc, Botrtyis cinerea) came to 2 µg/mL (≈ 3.07 µM); in [6] (read-out: Concentration at 90% Inhibition Cg, Collectotrichum graminicola) it was 0.4 µg/mL (≈ 0.615 µM); in assay [7] (read-out: Concentration at 90% Inhibition Dm, Diplodia maydis), 0.4 µg/mL (≈ 0.615 µM); in [8], 0.4 µg/mL (≈ 0.615 µM); in assay [9] (read-out: Concentration at 90% Inhibition Fv, Fusarium virguliforme, growth inhibition at 48 hours vs 2% DMSO control), 2 µg/mL (≈ 3.07 µM); in [10] (read-out: Concentration at 90% Inhibition Pc, Phytophthora capsici, growth inhibition at 48 hours vs 2% DMSO control) it was 10 µg/mL (≈ 15.4 µM). In addition, the IC90 was 0.08 µg/mL (≈ 0.123 µM) in [11] (read-out: Concentration at 90% Inhibition Rs, Rhizoctonia solani, mycelial plugs, growth inhibition at 48 hours vs 2% DMSO control) and above 50 µg/mL in assay [12] (read-out: Concentration at 90% Inhibition St, Septoria tritici).
